Test results reported in ChEMBL document CHEMBL6074668 (J Med Chem, 2024).
Active and inactive are the calls of the source. The rule behind the calls is not given here.

Experiments:
[1] = biological target: T1, Kappa-type opioid receptor (Homo sapiens, UniProt P41145); assay: Agonist activity at human kappa opioid receptor expressed in CHO-K1 cells assessed as inhibition of forskolin-stimulated cAMP accumulation by HitHunter assay based luminescence analysis; assay type: functional, cell-based
Mu-type opioid receptor [2] = biological target: T2, Mu-type opioid receptor (Homo sapiens, UniProt P35372); assay: Agonist activity at human mu opioid receptor expressed in CHO-K1 cells assessed as inhibition of forskolin-stimulated cAMP accumulation by HitHunter assay based luminescence analysis relative to control; assay type: functional, cell-based
[3] = biological target: Delta-type opioid receptor (Homo sapiens) (UniProt P41143); assay: Agonist activity at human delta opioid receptor expressed in CHO-K1 cells assessed as inhibition of forskolin-stimulated cAMP accumulation at <1 uM by HitHunter assay based luminescence analysis; assay type: functional, cell-based
[4] = biological target: T1, Kappa-type opioid receptor; assay: Agonist activity at human kappa opioid receptor expressed in CHO-K1 cells assessed as inhibition of forskolin-stimulated cAMP accumulation by HitHunter assay based luminescence analysis relative to control; assay type: functional, cell-based; conditions: filed as agonist
Mu-type opioid receptor [5] = biological target: T2, Mu-type opioid receptor; assay: Agonist activity at human mu opioid receptor expressed in CHO-K1 cells assessed as inhibition of forskolin-stimulated cAMP accumulation by HitHunter assay based luminescence analysis; assay type: functional, cell-based
Homo sapiens = organism: Homo sapiens; assay: Selectivity index, ratio of EC50 for agonist activity at human mu opioid receptor expressed in CHO-K1 cells to EC50 for agonist activity at human kappa opioid receptor expressed in CHO-K1 cells; assay type: cell-based
Mu-type opioid receptor [6] = biological target: T2, Mu-type opioid receptor
Description: Binding affinity to mu opioid receptor (unknown origin) by radioligand displacement assay

[7] = biological target: T3, Alpha-2C adrenergic receptor (Homo sapiens, UniProt P18825); assay: Binding affinity to alpha2C adrenergic receptor (unknown origin) by radioligand displacement assay
T3 sequence (P18825 whole entry): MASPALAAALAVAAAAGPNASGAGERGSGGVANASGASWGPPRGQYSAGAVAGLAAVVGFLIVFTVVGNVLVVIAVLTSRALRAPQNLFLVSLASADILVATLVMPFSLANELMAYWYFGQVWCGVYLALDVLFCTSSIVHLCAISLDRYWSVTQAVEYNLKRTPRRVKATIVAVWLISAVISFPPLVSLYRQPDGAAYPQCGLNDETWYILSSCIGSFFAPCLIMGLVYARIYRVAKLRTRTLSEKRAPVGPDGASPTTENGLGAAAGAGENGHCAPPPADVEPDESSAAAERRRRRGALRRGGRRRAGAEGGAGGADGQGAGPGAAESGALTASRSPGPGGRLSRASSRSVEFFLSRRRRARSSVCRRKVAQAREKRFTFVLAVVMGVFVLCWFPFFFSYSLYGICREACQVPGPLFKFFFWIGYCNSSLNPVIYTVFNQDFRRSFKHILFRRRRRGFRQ

[8] = biological target: T4, Alpha-2B adrenergic receptor (Homo sapiens, UniProt P18089); assay: Binding affinity to alpha2B adrenergic receptor (unknown origin) by radioligand displacement assay
T4 sequence (P18089 whole entry): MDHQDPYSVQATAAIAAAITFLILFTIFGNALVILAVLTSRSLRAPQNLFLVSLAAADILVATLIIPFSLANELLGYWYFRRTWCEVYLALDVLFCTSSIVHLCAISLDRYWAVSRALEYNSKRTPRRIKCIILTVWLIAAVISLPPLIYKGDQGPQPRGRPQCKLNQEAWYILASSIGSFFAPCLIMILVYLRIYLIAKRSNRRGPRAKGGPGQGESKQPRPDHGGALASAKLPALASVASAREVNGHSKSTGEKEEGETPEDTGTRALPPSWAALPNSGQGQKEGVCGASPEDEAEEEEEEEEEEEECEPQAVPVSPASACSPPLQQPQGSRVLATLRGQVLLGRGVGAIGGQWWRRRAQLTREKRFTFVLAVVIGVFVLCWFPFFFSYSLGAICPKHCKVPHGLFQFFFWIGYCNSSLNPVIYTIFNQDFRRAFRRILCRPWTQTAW

[9] = biological target: 5-hydroxytryptamine receptor 5A (Homo sapiens, UniProt P47898); assay: Binding affinity to 5HT5A receptor (unknown origin) by radioligand displacement assay
[10] = biological target: T1, Kappa-type opioid receptor; assay: Binding affinity to kappa opioid receptor (unknown origin) by radioligand displacement assay
[11] = biological target: T5, 5-hydroxytryptamine receptor 3A (Homo sapiens, UniProt P46098); assay: Binding affinity to 5HT3 receptor (unknown origin) by radioligand displacement assay
T5 sequence (P46098 whole entry): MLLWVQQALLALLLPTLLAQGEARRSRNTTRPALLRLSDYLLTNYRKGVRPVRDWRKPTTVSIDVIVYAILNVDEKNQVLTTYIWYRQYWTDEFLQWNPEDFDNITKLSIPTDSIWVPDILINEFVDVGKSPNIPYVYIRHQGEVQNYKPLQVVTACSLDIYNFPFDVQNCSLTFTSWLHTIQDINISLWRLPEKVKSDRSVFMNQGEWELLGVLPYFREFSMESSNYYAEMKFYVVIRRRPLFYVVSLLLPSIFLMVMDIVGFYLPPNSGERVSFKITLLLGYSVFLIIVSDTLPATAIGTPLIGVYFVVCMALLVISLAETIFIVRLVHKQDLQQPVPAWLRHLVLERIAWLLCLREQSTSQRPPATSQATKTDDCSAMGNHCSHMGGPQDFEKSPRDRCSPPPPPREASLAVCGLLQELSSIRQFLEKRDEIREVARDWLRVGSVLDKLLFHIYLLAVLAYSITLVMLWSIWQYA

[12] = biological target: T6, Voltage-gated inwardly rectifying potassium channel KCNH2 (Homo sapiens, UniProt Q12809); assay: Binding affinity to hERG at 10 uM by radioligand displacement assay; assay type: toxicity
[13] = biological target: T1, Kappa-type opioid receptor; assay: Agonist activity at kappa opioid receptor (unknown origin) assessed as beta arrestin2 recruitment at 3 uM by PRESTO-Tango assay; assay type: functional; conditions: filed as agonist
[14] = biological target: 5-hydroxytryptamine receptor 7 (Homo sapiens, UniProt P34969); assay: Binding affinity to 5HT7A receptor (unknown origin) by radioligand displacement assay
[15] = biological target: T1, Kappa-type opioid receptor; assay: Agonist activity at kappa opioid receptor (unknown origin) expressed in human U2OS cells assessed as beta arrestin2 recruitment at <10 uM incubated for 30 mins by PathHunter assay; assay type: functional, cell-based; conditions: filed as agonist
[16] = biological target: T6, Voltage-gated inwardly rectifying potassium channel KCNH2; assay: Binding affinity to hERG by radioligand displacement assay; assay type: toxicity
[17] = biological target: T7, Alpha-2A adrenergic receptor (Homo sapiens, UniProt P08913); assay: Binding affinity to alpha2A adrenergic receptor (unknown origin) by radioligand displacement assay
T7 sequence (P08913 whole entry): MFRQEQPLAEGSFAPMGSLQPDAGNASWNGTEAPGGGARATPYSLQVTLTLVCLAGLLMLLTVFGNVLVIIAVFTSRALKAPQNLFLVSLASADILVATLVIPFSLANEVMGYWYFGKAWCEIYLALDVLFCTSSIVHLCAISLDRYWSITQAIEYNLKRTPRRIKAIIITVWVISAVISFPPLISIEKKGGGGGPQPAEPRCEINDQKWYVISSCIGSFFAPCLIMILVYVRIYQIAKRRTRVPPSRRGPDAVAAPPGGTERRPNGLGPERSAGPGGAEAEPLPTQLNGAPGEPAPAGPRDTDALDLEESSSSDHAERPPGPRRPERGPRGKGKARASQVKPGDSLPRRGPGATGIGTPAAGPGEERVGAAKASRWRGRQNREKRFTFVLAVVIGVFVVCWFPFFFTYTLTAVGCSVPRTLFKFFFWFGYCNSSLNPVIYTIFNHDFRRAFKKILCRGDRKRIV

[18] = Binding affinity to alpha7 […] receptor (unknown origin) by radioligand displacement assay; design: species or system Homo sapiens
[19] = Binding affinity to Sigma2 opioid receptor (unknown origin) by radioligand displacement assay; design: species or system Homo sapiens
[20] = biological target: T8, Alpha-1B adrenergic receptor (Homo sapiens, UniProt P35368); assay: Binding affinity to alpha1B adrenergic receptor (unknown origin) by radioligand displacement assay
T8 sequence (P35368 whole entry): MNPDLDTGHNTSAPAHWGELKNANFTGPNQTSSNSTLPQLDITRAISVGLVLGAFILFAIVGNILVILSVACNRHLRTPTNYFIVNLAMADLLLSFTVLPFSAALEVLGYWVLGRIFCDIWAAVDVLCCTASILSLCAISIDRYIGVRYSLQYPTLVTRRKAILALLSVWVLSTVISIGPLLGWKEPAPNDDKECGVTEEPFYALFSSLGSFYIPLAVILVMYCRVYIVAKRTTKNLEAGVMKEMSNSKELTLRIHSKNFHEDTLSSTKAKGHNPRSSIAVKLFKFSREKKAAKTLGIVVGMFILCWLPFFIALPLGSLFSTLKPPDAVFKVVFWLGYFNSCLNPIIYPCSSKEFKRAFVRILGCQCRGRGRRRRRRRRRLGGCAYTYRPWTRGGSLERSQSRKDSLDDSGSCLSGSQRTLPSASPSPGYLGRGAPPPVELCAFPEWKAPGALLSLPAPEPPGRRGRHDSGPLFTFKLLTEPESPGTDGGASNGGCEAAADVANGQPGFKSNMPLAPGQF

[21] = biological target: T9, Alpha-1A adrenergic receptor (Homo sapiens, UniProt P35348); assay: Binding affinity to alpha1A adrenergic receptor (unknown origin) by radioligand displacement assay
T9 sequence (P35348 whole entry): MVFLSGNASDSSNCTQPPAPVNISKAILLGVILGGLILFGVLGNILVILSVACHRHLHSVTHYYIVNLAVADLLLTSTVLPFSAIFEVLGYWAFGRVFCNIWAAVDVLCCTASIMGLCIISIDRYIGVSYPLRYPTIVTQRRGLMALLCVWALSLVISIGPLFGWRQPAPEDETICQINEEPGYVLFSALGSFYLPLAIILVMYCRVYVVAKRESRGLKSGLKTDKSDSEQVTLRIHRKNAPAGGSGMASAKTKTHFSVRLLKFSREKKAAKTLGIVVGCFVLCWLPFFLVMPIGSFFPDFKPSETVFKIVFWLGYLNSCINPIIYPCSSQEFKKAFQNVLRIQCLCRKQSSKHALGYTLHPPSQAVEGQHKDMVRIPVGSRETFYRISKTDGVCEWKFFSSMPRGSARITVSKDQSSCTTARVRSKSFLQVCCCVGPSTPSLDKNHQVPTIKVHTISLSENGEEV

T1 sequence (P41145 whole entry): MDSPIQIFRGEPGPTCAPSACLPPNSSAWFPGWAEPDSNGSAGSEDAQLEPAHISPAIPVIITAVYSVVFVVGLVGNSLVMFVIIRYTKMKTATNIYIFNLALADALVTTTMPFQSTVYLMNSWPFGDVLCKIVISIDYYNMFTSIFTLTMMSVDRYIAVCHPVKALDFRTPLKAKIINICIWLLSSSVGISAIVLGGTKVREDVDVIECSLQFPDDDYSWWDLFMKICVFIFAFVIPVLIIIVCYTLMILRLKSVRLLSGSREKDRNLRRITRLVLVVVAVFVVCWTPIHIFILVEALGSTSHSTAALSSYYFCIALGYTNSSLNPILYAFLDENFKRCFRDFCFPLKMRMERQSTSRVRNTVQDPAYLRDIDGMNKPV
T2 sequence (P35372 whole entry): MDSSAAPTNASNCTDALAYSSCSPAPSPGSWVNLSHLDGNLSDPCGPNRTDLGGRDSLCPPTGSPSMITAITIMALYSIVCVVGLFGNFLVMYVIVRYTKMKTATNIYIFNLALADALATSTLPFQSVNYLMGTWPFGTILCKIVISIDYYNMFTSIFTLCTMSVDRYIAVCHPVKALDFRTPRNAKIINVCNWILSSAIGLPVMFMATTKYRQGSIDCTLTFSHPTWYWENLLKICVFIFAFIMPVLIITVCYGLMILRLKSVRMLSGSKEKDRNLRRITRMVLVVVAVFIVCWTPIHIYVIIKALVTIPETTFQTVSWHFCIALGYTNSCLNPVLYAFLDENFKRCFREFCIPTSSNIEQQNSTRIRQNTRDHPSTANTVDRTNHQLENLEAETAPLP
Chain of 5-hydroxytryptamine receptor 7 (P34969 whole entry): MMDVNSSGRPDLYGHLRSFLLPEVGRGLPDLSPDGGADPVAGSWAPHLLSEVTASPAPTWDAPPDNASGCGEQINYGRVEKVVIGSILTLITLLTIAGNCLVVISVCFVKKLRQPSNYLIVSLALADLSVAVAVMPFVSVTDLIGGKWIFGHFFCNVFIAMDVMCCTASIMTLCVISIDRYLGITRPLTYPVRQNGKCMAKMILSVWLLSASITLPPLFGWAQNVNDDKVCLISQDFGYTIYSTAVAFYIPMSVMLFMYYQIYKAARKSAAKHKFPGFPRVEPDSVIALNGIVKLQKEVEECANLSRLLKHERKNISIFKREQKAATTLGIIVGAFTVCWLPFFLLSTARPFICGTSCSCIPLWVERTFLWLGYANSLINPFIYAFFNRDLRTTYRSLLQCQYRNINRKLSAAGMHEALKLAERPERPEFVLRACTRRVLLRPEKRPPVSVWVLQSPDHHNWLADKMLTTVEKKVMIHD
Chain of 5-hydroxytryptamine receptor 5A (P47898 whole entry): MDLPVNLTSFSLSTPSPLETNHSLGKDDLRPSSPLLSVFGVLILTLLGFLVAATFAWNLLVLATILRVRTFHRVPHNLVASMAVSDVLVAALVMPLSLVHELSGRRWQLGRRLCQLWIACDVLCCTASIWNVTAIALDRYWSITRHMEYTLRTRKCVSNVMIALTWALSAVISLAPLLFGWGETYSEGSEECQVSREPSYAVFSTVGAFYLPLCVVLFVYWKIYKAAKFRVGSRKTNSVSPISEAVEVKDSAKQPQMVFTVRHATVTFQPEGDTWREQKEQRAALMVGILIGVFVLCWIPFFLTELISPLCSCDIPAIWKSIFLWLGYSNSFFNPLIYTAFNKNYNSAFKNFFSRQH
Chain of Delta-type opioid receptor (Homo sapiens) (P41143 whole entry): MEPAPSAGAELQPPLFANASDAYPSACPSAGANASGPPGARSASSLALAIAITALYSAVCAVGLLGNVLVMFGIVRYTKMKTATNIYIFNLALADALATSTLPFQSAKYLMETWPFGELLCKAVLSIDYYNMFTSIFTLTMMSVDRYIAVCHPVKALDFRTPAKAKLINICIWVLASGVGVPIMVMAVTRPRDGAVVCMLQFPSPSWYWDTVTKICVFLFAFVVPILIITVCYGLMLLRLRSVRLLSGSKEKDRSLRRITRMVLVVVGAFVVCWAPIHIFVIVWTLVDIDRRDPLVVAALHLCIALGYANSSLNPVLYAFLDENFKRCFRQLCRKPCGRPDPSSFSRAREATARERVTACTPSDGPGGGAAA
T6 sequence (Q12809 whole entry): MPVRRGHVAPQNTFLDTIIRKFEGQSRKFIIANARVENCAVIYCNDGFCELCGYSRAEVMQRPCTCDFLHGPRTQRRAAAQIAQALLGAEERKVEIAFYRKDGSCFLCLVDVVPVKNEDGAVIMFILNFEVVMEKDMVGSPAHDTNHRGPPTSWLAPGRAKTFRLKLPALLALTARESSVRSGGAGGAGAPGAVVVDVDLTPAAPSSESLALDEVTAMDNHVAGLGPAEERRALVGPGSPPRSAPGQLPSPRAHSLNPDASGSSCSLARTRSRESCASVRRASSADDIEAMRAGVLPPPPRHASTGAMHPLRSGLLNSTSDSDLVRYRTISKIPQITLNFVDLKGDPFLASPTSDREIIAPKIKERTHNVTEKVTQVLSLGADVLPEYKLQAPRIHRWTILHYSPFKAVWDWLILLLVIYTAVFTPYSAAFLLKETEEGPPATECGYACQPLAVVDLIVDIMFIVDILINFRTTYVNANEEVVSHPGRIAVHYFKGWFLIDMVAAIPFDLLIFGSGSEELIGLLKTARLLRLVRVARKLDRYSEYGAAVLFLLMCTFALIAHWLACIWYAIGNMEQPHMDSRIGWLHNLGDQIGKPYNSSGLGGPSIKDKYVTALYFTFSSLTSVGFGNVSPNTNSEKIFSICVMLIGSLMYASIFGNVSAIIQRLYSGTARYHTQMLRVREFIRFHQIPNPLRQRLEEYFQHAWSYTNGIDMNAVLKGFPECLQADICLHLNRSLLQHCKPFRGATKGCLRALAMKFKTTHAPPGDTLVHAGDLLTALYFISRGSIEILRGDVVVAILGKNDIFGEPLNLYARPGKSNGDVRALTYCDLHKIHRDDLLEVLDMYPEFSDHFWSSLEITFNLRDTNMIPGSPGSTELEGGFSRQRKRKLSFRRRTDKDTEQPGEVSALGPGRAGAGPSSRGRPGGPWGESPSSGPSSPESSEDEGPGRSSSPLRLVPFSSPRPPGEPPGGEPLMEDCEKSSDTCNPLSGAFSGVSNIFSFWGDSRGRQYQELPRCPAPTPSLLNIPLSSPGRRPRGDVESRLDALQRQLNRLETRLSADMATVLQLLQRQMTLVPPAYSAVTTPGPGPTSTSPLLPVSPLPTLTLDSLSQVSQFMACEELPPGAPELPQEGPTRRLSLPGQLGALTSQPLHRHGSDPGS

SMILES	EC50 [1]	Activity [3]	Emax [4]	Ki [7]	Ki [8]	Ki [9]	Ki [11]	Ki [14]	further results
C/C=C1/CN2CC[C@]34C(=C(C(=O)OC)[C@H]1C[C@H]23)Nc1ccc([N+](=O)[O-])cc14	160 nM	inactive	96%	–	–	–	–	–	Emax (Mu-type opioid receptor [2]): < 10%; EC50 (Mu-type opioid receptor [5]): 4000 nM; Ratio EC50 (Homo sapiens): 25
C/C=C1/CN2CC[C@]34C(=C(C(=O)OC)[C@H]1C[C@H]23)Nc1ccccc14 [AKUAMMICINE]	1200 nM	–	91%	4790 nM	1210 nM	2930 nM	5490 nM	1410 nM	Ki (Mu-type opioid receptor [6]): 3730 nM; Ki [10]: 166 nM; Activity [12]: < 50%; Activity [13]: Active
C/C=C1/CN2CC[C@]34C(=C(C(=O)OC)[C@H]1C[C@H]23)Nc1ccc(-c2ccoc2)cc14	–	inactive	102%	–	–	–	–	–	Emax (Mu-type opioid receptor [2]; filed as agonist): 99%; Activity [15]: Active; Less Efficacious Than U50488
C/C=C1/CN2CC[C@]34C(=C(C(=O)OC)[C@H]1C[C@H]23)Nc1ccc(Br)cc14	–	–	–	2910 nM	1250 nM	721 nM	210 nM	1520 nM	Ki [16]: 1340 nM; Ki [17]: > 10000 nM; Ki [18]: 7000 nM; Ki [19]: 2620 nM; Ki [20]: 2880 nM; Ki [21]: 1000 nM
